What is called IC50 is the concentration that inhibits the measured activity by half.

Drawing on ChEMBL document CHEMBL4765489, “A FabG inhibitor targeting an allosteric binding site inhibits several orthologs from Gram-negative ESKAPE pathogens” (Bioorg Med Chem, 2021), this text covers Activity, IC50 and Tm for three compounds.

Assay [1] concerns Acinetobacter baumannii. In words: Allosteric binding affinity to Acinetobacter baumannii N-terminal His6-tagged FabG expressed in Escherichia coli BL21 (DE3) assessed as reduction in NADPH bound protein fraction at 100 to 500 uM by fluorescence based analysis. The conditions noted are these: dose 100-500 µM.
Assay [2] can be described thus: Inhibition of Acinetobacter baumannii N-terminal His6-tagged FabG expressed in Escherichia coli BL21 (DE3) using 3-OHdNAC as substrate assessed as NADPH formation incubated for 2 hrs in presence of NADP by fluorescence based analysis.
In assay [3] the test system is Klebsiella pneumoniae. Put plainly: Allosteric binding affinity to Klebsiella pneumoniae N-terminal His6-tagged FabG expressed in Escherichia coli BL21 (DE3) assessed as protein destabilization by measuring decrease in melting temperature at 1 mM incubated for 15 mins by Sypro orange dye based differential scanning fluorimetry. A general note: DSF heats the sample and reads unfolding from a dye or from intrinsic fluorescence.

Assay [4] can be described thus: Inhibition of Klebsiella pneumoniae N-terminal His6-tagged FabG1 expressed in Escherichia coli BL21 (DE3) using AcAcCoA as substrate assessed as NADPH consumption measured for 6 to 10 mins in presence of NADPH by spectrophotometric analysis.
Assay [5] can be described thus: Inhibition of Salmonella typhimurium N-terminal His6-tagged FabG expressed in Escherichia coli BL21 (DE3) using AcAcCoA as substrate assessed as NADPH consumption measured for 6 to 10 mins in presence of NADPH by spectrophotometric analysis. Details: species or system Salmonella enterica subsp. enterica serovar Typhimurium.
Assay [6] concerns Acinetobacter baumannii. Put plainly: Allosteric binding affinity to Acinetobacter baumannii N-terminal His6-tagged FabG expressed in Escherichia coli BL21 (DE3) assessed as melting temperature at 1 mM incubated for 15 mins by Sypro orange dye based differential scanning fluorimetry (reference value: 61.3 degreeC).
Assay [7] can be described thus: Inhibition of Acinetobacter baumannii N-terminal His6-tagged FabG expressed in Escherichia coli BL21 (DE3) using AcAcCoA as substrate assessed as NADPH consumption measured for 6 to 10 mins in presence of NADPH by spectrophotometric analysis.
Assay [8] in a line: Inhibition of Pseudomonas aeruginosa N-terminal His6-tagged FabG expressed in Escherichia coli BL21 (DE3) using AcAcCoA as substrate assessed as NADPH consumption measured for 6 to 10 mins in presence of NADPH by spectrophotometric analysis.
The subject of assay [9] is Staphylococcus aureus. In words: Allosteric binding affinity to Staphylococcus aureus N-terminal His6-tagged FabG expressed in Escherichia coli BL21 (DE3) assessed as protein destabilization by measuring decrease in melting temperature at 1 mM incubated for 15 mins by Sypro orange dye based differential scanning fluorimetry.
Assay [10] relates to Escherichia coli. In words: Allosteric binding affinity to Escherichia coli N-terminal His6-tagged FabG expressed in Escherichia coli BL21 (DE3) assessed as protein destabilization by measuring decrease in melting temperature at 1 mM incubated for 15 mins by Sypro orange dye based differential scanning fluorimetry.
Assay [11] is described as follows: Inhibition of Escherichia coli N-terminal His6-tagged FabG expressed in Escherichia coli BL21 (DE3) using AcAcCoA as substrate assessed as NADPH consumption measured for 6 to 10 mins in presence of NADPH by spectrophotometric analysis.
Assay [12] in a line: Inhibition of Staphylococcus aureus N-terminal His6-tagged FabG expressed in Escherichia coli BL21 (DE3) using AcAcCoA as substrate assessed as NADPH consumption measured for 6 to 10 mins in presence of NADPH by spectrophotometric analysis.
Assay [13] has as its system Pseudomonas aeruginosa. In words: Allosteric binding affinity to Pseudomonas aeruginosa N-terminal His6-tagged FabG expressed in Escherichia coli BL21 (DE3) assessed as protein destabilization by measuring decrease in melting temperature at 1 mM incubated for 15 mins by Sypro orange dye based differential scanning fluorimetry.
The nature of assay [14]: Inhibition of Salmonella typhimurium N-terminal His6-tagged FabG expressed in Escherichia coli BL21 (DE3) using 3-OHdNAC as substrate assessed as NADPH formation incubated for 2 hrs in presence of NADP by spectrophotometric analysis. On the set-up: species or system Salmonella enterica subsp. enterica serovar Typhimurium.
Assay [15] concerns Salmonella enterica subsp. enterica serovar Typhimurium. In words: Allosteric binding affinity to Salmonella typhimurium N-terminal His6-tagged FabG expressed in Escherichia coli BL21 (DE3) assessed as protein destabilization by measuring decrease in melting temperature at 1 mM incubated for 15 mins by Sypro orange dye based differential scanning fluorimetry.

Activity calls are given as the source filed them. The rule behind the calls is not given here.

As for `CCOC(=O)c1c(CN(C)C)n(-c2ccccc2)c2cc(Br)c(O)cc12`, the outcome in [1], in assay [3], in assay [9], in [10], in [13] and in assay [15] was Active. Moreover, the IC50 is 0.36 µM in assay [2]; 13.8 µM in assay [4]; 12 µM in assay [5]; 64 µM in assay [7]; 19.7 µM in [8]; 7 µM in assay [11]. In addition, the IC50 came out at 70.7 µM in assay [12] and 35 µM in [14]. Further, the Tm in assay [6] amounted to 58.5 °C.
In the case of `O=C(Nc1ccc(Br)cc1C(=O)O)c1cccs1`, the IC50 was found to be 186 µM in assay [4]; 175 µM in assay [5]; 33.4 µM in assay [7]; 3.1 µM in assay [8]; 5.1 µM in assay [14].
For `O=c1[nH]c(SCc2c(Cl)cccc2Cl)nc2ccnn12`, the IC50 came to 137 µM in assay [4]; 150 µM in assay [5]; 30.9 µM in [8]; 19.9 µM in [11]; 22 µM in assay [14].
